Assay results from US8709396B2, “Method and composition for attracting arthropods by volatizing an acid” (Premark FEG L.L.C., priority 2002, dated 2014).

Test system: Aedes aegypti (AE) mosquitoes
Assay: olfactometer two-stimulus choice test, average percent of mosquitoes attracted
Type: in vivo
Conditions: for attraction of mosquitoes, result in words: olfactometer, AE mosquitoes, summary statements of the text
Experimental: 100 Aedes aegypti (AE) mosquitoes were placed into an olfactometer unit. For each test, the mosquitoes were exposed to two sets of stimuli for a collection period of 3 minutes. The mosquitoes could choose between the stimuli or not respond.
For the first test, ferric chloride hexahydrate was impregnated on diatomaceous earth and was activated with a moisture containing substance to form the first stimulus center. This material released water and trace amounts of hydrochloric acid, HCl. The second stimulus center in this test was a blank (no chemical stimulus).
For the second test, dry carbon dioxide was fed at 5 ml/min from a standard gas cylinder as the first stimulus center. The second stimulus center in this test was a blank (no chemical stimulus).
For the third test, ferric chloride hexahydrate was impregnated on diatomaceous earth and was activated with a moisture containing substance to form the first stimulus center. This material released water and trace amounts of hydrochloric acid, HCl. The second stimulus center was dry carbon dioxide fed at 5 ml/min from a standard gas cylinder.
As with Example 1, 100 AE mosquitoes were placed into an olfactometer unit. For each test, the mosquitoes were exposed to two sets of stimuli for a collection period of 3 minutes. The mosquitoes could choose between the stimuli or not respond.
For the first test, dry carbon dioxide was fed at 5 ml/min from a standard gas cylinder as the first stimulus center. The second stimulus center in this test was a blank (no chemical stimulus).
For the second test, ferric chloride hexahydrate impregnated on diatomaceous earth and sodium bicarbonate powder were contained in a sachet. The sachet was activated by combining the two powders stimulating a chemical reaction that released carbon dioxide, water and trace amounts of hydrochloric acid, forming the first stimulus center. The reaction produces by-product water that stimulates hydrochloric acid production from the ferric chloride. The sachet was designed to release CO2 at a rate of 5 ml/min over the collection period. The second stimulus center in this test was a blank (no chemical stimulus).
For the third test, a sachet containing ferric chloride hexahydrate impregnated on diatomaceous earth and sodium bicarbonate powder, similar to the sachet used in the second test, was activated with a moisture-containing substance to release carbon dioxide water and trace amounts of hydrochloric acid, forming the first stimulus center. The reaction produces by-product water that stimulates hydrochloric acid production from the ferric chloride. The second stimulus center was carbon dioxide fed at 5 ml/min from a standard gas cylinder.
As with Examples 1 and 2, 100 AE mosquitoes were placed into an olfactometer unit. For each test, the mosquitoes were exposed to two sets of stimuli for a collection period of 3 minutes. The mosquitoes could choose between the stimuli or not respond.
For the first test, ferric chloride hexahydrate impregnated on a diatomaceous earth was activated with a moisture containing substance to form the first stimulus center. This material released water and trace amounts of hydrochloric acid, HCl. The second stimulus center in this test was a blank (no chemical stimulus).
The sachet was activated by combining the two powders stimulating a chemical reaction that released carbon dioxide, water and trace amounts of hydrochloric acid, forming the first stimulus center. The reaction produces by-product water that stimulates hydrochloric acid production from the ferric chloride. The sachet was designed to release carbon dioxide at a rate of 5 ml/min. The second stimulus center in this test was a blank.
For the third test, a sachet identical to that used in the second test and containing ferric chloride hexahydrate impregnated on diatomaceous earth and sodium bicarbonate powder was activated, forming the first stimulus center.

SMILES: O=C=O [CO2 (Dry), carbon dioxide]
- Stimulant 2 - Avg. % attracted (100 AE mosquitoes, 3 min, first stimulus center Activated Ferric Chloride): 12%
- Stimulant 2 - Avg. % attracted (100 AE mosquitoes, 3 min, first stimulus center CO2/HCl/H2O Sachet): 2%
- Stimulant 1 - Avg. % attracted (100 AE mosquitoes, 3 min collection, second stimulus center blank (Examples 1-3)): 21%
- Stimulant 2 - Avg. % attracted (Example 4: CO2 5 mL/min, 3 min, first stimulus center CO2 flowing over water surface): 7%
- Stimulant 1 - Avg. % attracted (Example 4: dry CO2 5 mL/min through tube or cartridge, 100 AE mosquitoes, 3 min, second stimulus center blank): 15%
- attraction of mosquitoes, result in words (listed as CO2 (dry)): is an attractant for mosquitoes
- attraction of mosquitoes, result in words (listed as carbon dioxide): did not draw significant numbers
